Data published in patent US12138256B2, “Treatment of cardiopulmonary disorders” (Bayer Aktiengesellschaft, priority 2021, dated 2024).
Where “and” joins values, the source holds several entries; their conditions need not be identical. Equal values may be shown once.

Columns and labels:
[1] = Particle size distribution by laser diffraction with dry dispersion; type: physicochemical; details: after micronization, dry measurement (3 or 4 bar)
Method: All measurements cited in the above tables were obtained by laser diffraction with dry dispersion using compressed air. Measuring in aqueous suspension with surfactants may lead to smaller particle sizes (×90 up to 1 μm smaller).
The particle size analysis data are usually reported as cumulative undersized distribution by volume. The symbol x is used to denote the particle size, which is defined as diameter of a volume equivalent sphere. Most common characteristic values are calculated from the particle size distribution by interpolation. Frequently used are the particle sizes at the undersize values of 10%, 50% and 90% of the volume distribution, denoted as x10, x50 and x90. x50 is also known as median particle size. The symbol d is widely used to designate the particle size, thus the symbol x may be replaced by the symbol d.

[2] = tested on: rabbit saphenous artery; assay: Vasorelaxant effect in vitro: phenylephrine-induced contraction of rabbit saphenous artery rings (C-1.1); details: mean +/− SEM
Method: Rabbits were anaesthetized and sacrificed by intravenous injection of thiopental sodium (about 50 mg/kg) and exsanguinated. The saphenous artery was removed and divided into rings 3 mm wide. The rings were mounted singly on in each case a pair of triangular hooks open at the end and made of 0.3 mm-thick special wire (Remanium®). Each ring was placed under an initial tension in 5 ml organ baths with Krebs-Henseleit solution which was at 37° C., was gassed with carbogen and had the following composition: NaCl 119 mM; KCl 4.8 mM; CaCl2)×2 H2O 1 mM; MgSO4×7 H2O 1.4 mM; KH2PO41.2 mM; NaHCO325 mM; glucose 10 mM; bovine serum albumin 0.001%. The force of contraction was detected with Statham UC2 cells, amplified and digitized via A/D converters (DAS-1802 HC, Keithley Instruments, Munich) and recorded in parallel on chart recorders. Contractions were induced by addition of phenylephrine.
The concentration necessary to reduce the contraction reached in the preceding control by 50% was calculated from this (IC50). The standard application volume was 5 μl. The proportion of DMSO in the bath solution corresponded to 0.1%.

[3] = tested on: isolated Langendorff-perfused rat heart; assay: Isolated perfused heart according to Langendorff: perfusion pressure and wash-out score (C-1.2); details: 100 nmol/l
Method: Male Wistar rats (strain HsdCpb:WU) with a body weight of 200-250 g were anaesthetized with Narcoren® (100 mg/kg). The thorax was opened and the heart was then exposed, excised and connected to a Langendorff apparatus by placing a cannula into the aorta. The heart was perfused retrogradely at 9 ml/min at constant flow with a Krebs-Henseleit buffer solution (gassed with 95% O2 and 5% CO2, pH 7.4, 35° C.; composition in mmol/l: NaCl 118; KCl 3; NaHCO3 22; KH2PO4 1.2; MgSO4 1.2; CaCl2 1.8; Glucose 10; Na pyruvate 2). A pressure transducer registered the perfusion pressure in the perfusion system. The left ventricular pressure (LVP) was measured using a second pressure transducer connected to a water-filled balloon which was inserted into the left ventricle via the left atrium. The end diastolic pressure was initially set to 8 mm Hg by adjusting the volume of the balloon. The hearts were spontaneously beating. The signals from the pressure transducer were amplified, registered by a personal computer (Powerlab Chart software, ADInstruments).
Then the hearts were perfused for a further 120 min without the test substance (wash-out phase). The reversibility of the effect (wash-out score) was calculated as a percentage of the PP recovery after 60 min of washout related to the maximum drop of PP induced by the test compound. The wash-out score obtained in this manner was taken as a measure for the residence time of the test substance at the site of action.

[4] = tested on: thromboxane analog U46619 induced PAH in minipigs; assay: Haemodynamics (PAP, BP) in the anesthetized thromboxane challenged PAH minipig after inhaled (nebulized) application (C-2.1); type: in vivo, Göttingen minipig; details: inhaled 100 μg/kg
Method: Experiments were carried out in anesthetized Göttingen minipigs, anesthetized rats and conscious, telemetrically instrumented dogs. Acute pulmonary hypertension was induced for example by infusion of a thromboxane A2 analogon, by acute hypoxia treatment or hypoxia treatment over a number of weeks and/or by administration of monocrotaline. Test substances were applied via nebulization using the Nebutec® or Aeroneb® Pro nebulizer system, and/or by means of powder and/or solution applicators for experimental intratracheal administration (Liquid MicroSprayer®, Dry Powder Insufflator™, MicroSprayer®, Penn-Century Inc., Wyndmoor, PA, USA) or after solid nebulization inserted into the inspiration arm of the ventilation. Compounds were employed as solids or solutions depending on the molecular structure and the technical possibility depending on the experiment. The haemodynamic signals were recorded and evaluated by means of pressure transducers/amplifiers (Combitransducer B. Braun, Melsungen, Germany or CardioMEMS Inc., Atlanta, GA, USA) and Ponemah® or CardioMems® as data aquisition software. After long-term experiments (for example monocrotaline rat), it is also possible to carry out a histological evaluation.
Healthy Gottingen Minipigs® Ellegaard (Ellegaard, Denmark) of both sexes and having a weight of 2-6 kg were used. The animals were sedated by i.m. administration of about 25 mg/kg ketamine and about 10 mg/kg azaperone. Anaesthesia was initiated by i.v. administration of about 2 mg/kg ketamine and about 0.3 mg/kg midazolam. Maintenance of anaesthesia was by i.v. administration of about 7.5-30 mg/kg/h ketamine and about 1-4 mg/kg/h midazolam (rate of infusion 1-4 ml/kg/h) and about 150 μg/kg/h pancuronium bromide (for example Pancuronium-Actavis). After intubation, the animals were ventilated by the ventilator at a constant respiratory volume (10-12 ml/kg, 35 breaths/min; Avea®, Viasys Healthcare, USA, or Engstrom Carestation, GE Healthcare, Freiburg, Germany) such that an end-tidal CO2 concentration of about 5% was achieved. Ventilation was performed with room air, enriched with about 40% oxygen (normoxia). For the measurement of the haemodynamic parameters such as pulmonary arterial pressure (PAP), blood pressure (BP) and heart rate (HR), catheters were inserted into the carotid artery to measure the blood pressure, and a Swan-Ganz® catheter was introduced in a flow-directed manner via the jugular vein into the pulmonary artery. The haemodynamic signals were recorded and evaluated by means of pressure transducers (Combitransducer, B. Braun, Melsungen, Germany)/amplifiers and Ponemah® as data aquisition software.
After the instruments have been placed into the animals, continuous infusion of a thromboxane A2 analog was initiated to increase the pulmonary arterial pressure. […] D0400, or Cayman Chemical Company, cat. no. 16440), dissolved in physiological saline, were infused to achieve an increase of the mean pulmonary arterial pressure to values of over 25 mmHg. 30 minutes after the start of the infusion, a plateau was reached, and the experiment was started.
The test substances were administered as i.v. infusion or by inhalation. For the preparation of the solution for inhalation, the following procedure was adopted: For an animal having a weight of 4 kg, to prepare the stock solution (300 μg/kg), 1.2 mg of the test compound were weighed out and dissolved in a total volume of 3 ml (1% DMSO, 99% 0.2% strength citric acid solution, 1 N aqueous sodium hydroxide solution to adjust the pH to 8). The solution was then diluted to the concentration employed using 0.2% strength citric acid which had been adjusted to pH 8 beforehand with aqueous sodium hydroxide solution. In each test, 3 ml of the solution of test compound per 4 kg animal were nebulized in the inhalation arm of the respiratory circuit using the Aeroneb® Pro nebulizer system. The mean nebulization time was about 7 min from the start of the nebulization.

O.O=C(O)c1ccc(CCN(CCc2ccccc2OCc2ccc(-c3ccc(C(F)(F)F)cc3)cc2Cl)[C@H]2CCCc3nc(C(=O)O)ccc32)cc1 [8g]
PSD X10 [1]: X10: 0,5 μm,
PSD X50 [1]: X50: 1.8 μm,
PSD X90 [1]: X90: 3.9 μm

O.O=C(O)c1ccc(CCN(CCc2ccccc2OCc2ccc(-c3ccc(C(F)(F)F)cc3)cc2Cl)[C@H]2CCCc3nc(C(=O)O)ccc32)cc1 [8c]
PSD X10 [1]: X10: 0.4 μm,
PSD X50 [1]: X50: 1.8 μm,
PSD X90 [1]: X90: 4.8 μm

O.O=C(O)c1ccc(CCN(CCc2ccccc2OCc2ccc(-c3ccc(C(F)(F)F)cc3)cc2Cl)[C@H]2CCCc3nc(C(=O)O)ccc32)cc1 [example 8b]
PSD X10 [1]: X10: 0.7 μm,
PSD X50 [1]: X50: 1.9 μm,
PSD X90 [1]: X90: 5.0 μm

O=C(O)CCCCN(CCc1ccccc1OCc1ccc(CCc2ccccc2)cc1)Cc1ccc(C(=O)O)cc1 [comparative example 1 (Cinaciguat)]
% contraction (PE-induced contraction of rabbit saphenous artery) ([2]; 10^−6 M/L, incubation time 0.5 h): 19 ± 6.1%
% contraction (PE-induced contraction of rabbit saphenous artery) ([2]; 10^−7 M/L, incubation time 0.5 h): 28 ± 4.2%
% contraction (PE-induced contraction of rabbit saphenous artery) ([2]; 10^−7 M/L, incubation time 2.5 h): 33 ± 5.8%
% contraction (PE-induced contraction of rabbit saphenous artery) ([2]; 10^−8 M/L, incubation time 0.5 h): 54 ± 5.2%
% contraction (PE-induced contraction of rabbit saphenous artery) ([2]; 10^−8 M/L, incubation time 2.5 h): 48 ± 6.0%
% contraction (PE-induced contraction of rabbit saphenous artery) ([2]; 10^−9 M/L, incubation time 0.5 h): 85 ± 4.2%
% contraction (PE-induced contraction of rabbit saphenous artery) ([2]; 10^−9 M/L, incubation time 2.5 h): 75 ± 4.6%
% contraction (PE-induced contraction of rabbit saphenous artery) ([2]; 10^−10 M/L, incubation time 0.5 h): 101 ± 1.7%
% contraction (PE-induced contraction of rabbit saphenous artery) ([2]; 10^−10 M/L, incubation time 2.5 h): 93 ± 2.6%
% contraction (PE-induced contraction of rabbit saphenous artery) ([2]; 10^−11 M/L, incubation time 0.5 h): 97 ± 1.2%

O.O=C(O)c1ccc(CCN(CCc2ccccc2OCc2ccc(-c3ccc(C(F)(F)F)cc3)cc2Cl)[C@H]2CCCc3nc(C(=O)O)ccc32)cc1 [example 8e]
PSD X10 [1]: X10: 0.7 μm,
PSD X50 [1]: X50: 2.1 μm,
PSD X90 [1]: X90: 6.1 μm

O.O=C(O)c1ccc(CCN(CCc2ccccc2OCc2ccc(-c3ccc(C(F)(F)F)cc3)cc2Cl)[C@H]2CCCc3nc(C(=O)O)ccc32)cc1 [8d]
PSD X10 [1]: X10: 0.5 μm,
PSD X50 [1]: X50: 2.3 μm,
PSD X90 [1]: X90: 9.6 μm

COC(=O)N(C)c1c(N)nc(-c2nn(Cc3ccccc3F)c3ncccc23)nc1N [Riociguat (comparative example 2)]
Wash-out score (%) after 60 min [3]: 98.0%
Perfusion pressure (%) (timepoint at 20 min) Mean ([3]; isolated Langendorff-perfused rat heart): 55.4%
Perfusion pressure (%) (timepoint at 90 min) Mean ([3]; wash-out phase): 99.9%
% changes in BP vs baseline ([4]; 0 min vs. start inhalation): 100% and 102%
% changes in PAP vs baseline ([4]; 0 min vs. start inhalation): 99%
% changes in BP vs baseline ([4]; 10 min vs. start inhalation): 91% and 86%
% changes in PAP vs baseline ([4]; 10 min vs. start inhalation): 95% and 92%
% changes in BP vs baseline ([4]; 20 min vs. start inhalation): 91% and 85%
% changes in PAP vs baseline ([4]; 20 min vs. start inhalation): 94% and 90%
% changes in BP vs baseline ([4]; 30 min vs. start inhalation): 94%
% changes in PAP vs baseline ([4]; 30 min vs. start inhalation): 94% and 90%
% changes in BP vs baseline ([4]; −5 min vs. start inhalation): 100%
% changes in PAP vs baseline ([4]; −5 min vs. start inhalation): 99% and 101%

O.O=C(O)c1ccc(CCN(CCc2ccccc2OCc2ccc(-c3ccc(C(F)(F)F)cc3)cc2Cl)[C@H]2CCCc3nc(C(=O)O)ccc32)cc1 [8f]
PSD X10 [1]: X10: 0.6 μm,
PSD X50 [1]: X50: 2.4 μm,
PSD X90 [1]: X90: 6.3 μm

Ethyl 5-{[2-(2-{[3-chloro-4′-(trifluoromethyl)biphenyl-4-yl]methoxy}phenyl)ethyl]amino}-5,6,7,8-tetrahydroquinoline-2-carboxylate [example 8a]
PSD X10 [1]: X10: 0.4 μm,
PSD X50 [1]: X50: 1.7 μm,
PSD X90 [1]: X90: 4.2 μm
